Assay results from ChEMBL document CHEMBL3994658, “Synthesis, molecular docking and α-glucosidase inhibition of 2-((5,6-diphenyl-1,2,4-triazin-3-yl)thio)-N-arylacetamides” (Bioorg Med Chem Lett, 2017).

Test: Inhibition of Saccharomyces cerevisiae alpha-glucosidase using p-nitrophenyl-alpha-D-glucopyranoside as substrate preincubated for 15 mins followed by substrate addition measured after 30 mins by spectrophotometric method

Compared with `COc1ccc(NC(=O)CSc2nnc(-c3ccccc3)c(-c3ccccc3)n2)cc1`, `CCOc1ccc(NC(=O)CSc2nnc(-c3ccccc3)c(-c3ccccc3)n2)cc1` is 1.9-fold lower in IC50: 49.4 µM for the first, 26.3 µM for the second. The second is the more potent here.

`Cc1ccc(NC(=O)CSc2nnc(-c3ccccc3)c(-c3ccccc3)n2)c(C)c1` and `Cc1ccc(NC(=O)CSc2nnc(-c3ccccc3)c(-c3ccccc3)n2)c([N+](=O)[O-])c1` are within 1.5-fold of each other in IC50: 67.2 µM for the first, 45.6 µM for the second.

`O=C(CSc1nnc(-c2ccccc2)c(-c2ccccc2)n1)Nc1ccc(C(F)(F)F)cc1` and `O=C(CSc1nnc(-c2ccccc2)c(-c2ccccc2)n1)Nc1ccc(F)cc1` are within 1.5-fold of each other in IC50: 34.9 µM for the first, 50.6 µM for the second.

`COc1ccc(NC(=O)CSc2nnc(-c3ccccc3)c(-c3ccccc3)n2)c([N+](=O)[O-])c1` and `O=C(CSc1nnc(-c2ccccc2)c(-c2ccccc2)n1)Nc1ccc(Cl)cc1Cl` are within 1.5-fold of each other in IC50: 47 µM for the first, 36.8 µM for the second.

Compared with `O=C(CSc1nnc(-c2ccccc2)c(-c2ccccc2)n1)Nc1ccc(Cl)cc1`, `Cc1ccc(NC(=O)CSc2nnc(-c3ccccc3)c(-c3ccccc3)n2)cc1` is 3.7-fold higher in IC50: 14.1 µM for the first, 52 µM for the second. The first is the more potent here.

Compared with `CCOc1ccccc1NC(=O)CSc1nnc(-c2ccccc2)c(-c2ccccc2)n1`, `Cc1ccccc1NC(=O)CSc1nnc(-c2ccccc2)c(-c2ccccc2)n1` is 4.5-fold higher in IC50: 16 µM for the first, 72.7 µM for the second.

First: O=C(CSc1nnc(-c2ccccc2)c(-c2ccccc2)n1)Nc1ccc(Oc2ccccc2)cc1
Second: O=C(CSc1nnc(-c2ccccc2)c(-c2ccccc2)n1)Nc1ccccc1
The IC50 of the first is 2.8-fold lower: 25.2 µM for the first, 71.1 µM for the second. The first is the more potent here.

Going from `O=C(CSc1nnc(-c2ccccc2)c(-c2ccccc2)n1)Nc1ccc([N+](=O)[O-])cc1` to `Cc1cccc(NC(=O)CSc2nnc(-c3ccccc3)c(-c3ccccc3)n2)c1`, the IC50 rises from 12.5 µM to 42.5 µM (3.4-fold).

With `O=C(CSc1nnc(-c2ccccc2)c(-c2ccccc2)n1)Nc1cc(Cl)ccc1Cl` the IC50 was 28 µM.
